Reference: ChEMBL document CHEMBL1139483, “Inhibitors of tripeptidyl peptidase II. 3. Derivation of butabindide by successive structure optimizations leading to a potential general approach to designing exopeptidase inhibitors” (J Med Chem, 2005)
Where a SMILES comes first, the peptide text is derived from it. [ ]: non-standard residue; d: D form. The star is where a group is joined. Pip = O=C(O)[C@@H]1CCCCN1; Nle = CCCC[C@H](N)C(=O)O; βNA = c1ccc2cc(N*)ccc2c1; Aze = O=C(O)[C@@H]1CCN1; Nva = CCC[C@H](N)C(=O)O; Abu = CC[C@H](N)C(=O)O; Aib = CC(C)(N)C(=O)O; NHBn = c1ccc(CN*)cc1; NHBu = CCCCN*

Target: Tripeptidyl-peptidase 2 (Rattus norvegicus, UniProt Q64560)
Sequence (Q64560 whole entry): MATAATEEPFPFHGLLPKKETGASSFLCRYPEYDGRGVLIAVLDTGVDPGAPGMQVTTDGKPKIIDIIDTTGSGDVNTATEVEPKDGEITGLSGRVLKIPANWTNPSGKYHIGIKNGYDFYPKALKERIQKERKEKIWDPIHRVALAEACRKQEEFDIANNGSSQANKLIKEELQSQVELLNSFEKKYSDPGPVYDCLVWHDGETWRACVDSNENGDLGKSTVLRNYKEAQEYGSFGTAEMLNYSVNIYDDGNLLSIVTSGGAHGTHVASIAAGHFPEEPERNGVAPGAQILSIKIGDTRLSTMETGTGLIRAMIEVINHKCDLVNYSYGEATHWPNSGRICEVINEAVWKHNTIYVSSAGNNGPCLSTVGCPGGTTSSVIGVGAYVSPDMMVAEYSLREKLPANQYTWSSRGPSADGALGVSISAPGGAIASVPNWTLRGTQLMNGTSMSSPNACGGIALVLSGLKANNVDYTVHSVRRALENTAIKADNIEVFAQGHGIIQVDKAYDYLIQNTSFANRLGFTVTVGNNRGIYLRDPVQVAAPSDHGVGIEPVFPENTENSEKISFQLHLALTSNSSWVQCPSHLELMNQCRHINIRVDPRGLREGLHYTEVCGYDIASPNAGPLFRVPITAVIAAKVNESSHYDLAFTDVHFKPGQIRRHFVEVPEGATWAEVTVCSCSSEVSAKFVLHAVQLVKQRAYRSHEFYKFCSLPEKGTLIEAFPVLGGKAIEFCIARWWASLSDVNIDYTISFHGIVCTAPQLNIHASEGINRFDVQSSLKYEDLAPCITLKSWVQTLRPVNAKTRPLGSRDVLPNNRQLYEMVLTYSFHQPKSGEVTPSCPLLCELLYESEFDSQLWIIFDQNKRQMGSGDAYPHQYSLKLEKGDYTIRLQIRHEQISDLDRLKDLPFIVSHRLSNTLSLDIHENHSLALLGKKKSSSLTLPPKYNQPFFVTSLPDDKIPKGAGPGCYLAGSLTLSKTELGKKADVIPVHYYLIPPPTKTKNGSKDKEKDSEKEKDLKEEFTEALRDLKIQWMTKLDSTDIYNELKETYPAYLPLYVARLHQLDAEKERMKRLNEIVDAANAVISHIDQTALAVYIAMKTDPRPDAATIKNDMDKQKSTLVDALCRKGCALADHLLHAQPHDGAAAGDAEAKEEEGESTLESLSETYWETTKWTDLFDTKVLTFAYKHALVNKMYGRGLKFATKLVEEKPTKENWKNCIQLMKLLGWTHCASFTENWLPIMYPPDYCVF
Assay: Inhibition of TPPII in rat cerebral membrane
Format: cell membranes

| Compound | Ki |
| --- | --- |
| CC[C@H](N)C(=O)N1CCC[C@H](C(N)=O)C1 | 40 µM |
| CC[C@H](C)NC(=O)[C@@H]1CCCN1C(=O)[C@@H](N)CC | 20 µM |
| CCCCNC(=O)C1CCCCCN1C(=O)[C@@H](N)CC (stereo partly drawn) | 6 µM |
| CCCCNC(=O)[C@@H]1CC(Cc2ccccc2)CN1C(=O)[C@@H](N)CC (stereo partly drawn) | 0.14 µM |
| CCCCNC(=O)[C@H]1CCCN1C(=O)[C@@H](N)C(C)C | 190 µM |
| CC[C@H](N)C(=O)N1CCCC[C@@H]1C(N)=O | 12 µM |
| CC[C@H](N)C(=O)N1CSC[C@@H]1C(N)=O | 40 µM |
| CC[C@@H](C)NC(=O)[C@@H]1CCCN1C(=O)[C@@H](N)CC | 4.5 µM |
| CC(C)[C@H](N)C(=O)N1CCC[C@H]1C(=O)NN1CCCCC1 | 57 µM |
| C[C@H](N)C(=O)N1CCC[C@H]1C(N)=O (H-Ala-Pro-NH2) | 2.1 µM |
| CC[C@H](C)[C@H](N)C(=O)N1CCC[C@H]1C(N)=O (H-Ile-Pro-NH2) | 4.3 µM |
| CC(C)C[C@H](N)C(=O)N1CCC[C@H]1C(N)=O (H-Leu-Pro-NH2) | 2.1 µM |
| NC(=O)[C@@H]1CCCN1C(=O)[C@@H](N)Cc1ccccc1 (H-Phe-Pro-NH2) | 71 µM |
| CC(C)[C@H](N)C(=O)N1CCC[C@H]1C(N)=O (H-Val-Pro-NH2) | 6 µM |
| CC(C)[C@H](N)C(=O)N1CCC[C@H]1C(=O)NCc1ccccc1 (H-Val-Pro-NHBn) | 3.3 µM |
| CC(C)[C@H](N)C(=O)N1CCC[C@H]1C(=O)Nc1ccc2ccccc2c1 (H-Val-Pro-βNA) | 860 µM |
| CC[C@H](N)C(=O)N1CCC[C@H]1C(N)=O (H-[Abu]-Pro-NH2) | 0.57 µM |
| CCCCNC(=O)[C@@H]1CCCN1C(=O)[C@@H](N)CC (H-[Abu]-Pro-NHBu) | 0.08 µM |
| CC[C@H](N)C(=O)N1CC[C@H]1C(N)=O (H-[Abu]-[Aze]-NH2) | 20 µM |
| CCCCNC(=O)[C@@H]1CCCCN1C(=O)[C@@H](N)CC (H-[Abu]-[Pip]-NHBu) | 35 µM |
| CCCCNC(=O)[C@@H]1CCCN1C(=O)C(C)(C)N (H-[Aib]-Pro-NHBu) | 5 µM |
| CCCC[C@H](N)C(=O)N1CCC[C@H]1C(N)=O (H-[Nle]-Pro-NH2) | 2 µM |
| CCC[C@H](N)C(=O)N1CCC[C@H]1C(N)=O (H-[Nva]-Pro-NH2) | 1.6 µM |
